Test results as given in article PMC8041284, “Tunable Methacrylamides for Covalent Ligand Directed Release Chemistry” (Journal of the American Chemical Society, 2021).
*1 amine or outer side, *2 acyl side, *3 side chain or, on linkers, in order; H or OH if unused. Where a SMILES comes first, the peptide text is derived from it. Bridges are numbered along the chain shown (N, C = ends). Where no end group is shown, it is not given here. [ ]: non-standard residue; d: D form. The star is where a group is joined. Orn(4R-OH,5R-OH) = O=C([C@H](C[C@@H](O)[C@@H](O)N[*:3])N[*:1])[*:2]; Tetradecanoyl(10R,12S-Me2) = CC[C@H](C)C[C@H](C)CCCCCCCCC(=O)*; hTyr(3S-OH,4S-OH) = N[C@H](C(=O)O)[C@H](O)[C@@H](O)c1ccc(O)cc1; Gln(3R-OH) = NC(=O)C[C@@H](O)[C@H](N)C(=O)O; Pro(3S-OH) = O=C(O)[C@H]1NCC[C@@H]1O; Hyp = O=C(O)[C@@H]1C[C@@H](O)CN1

Target: BTK (Homo sapiens, UniProt Q06187)
Sequence (Q06187 402-655 limits assumed): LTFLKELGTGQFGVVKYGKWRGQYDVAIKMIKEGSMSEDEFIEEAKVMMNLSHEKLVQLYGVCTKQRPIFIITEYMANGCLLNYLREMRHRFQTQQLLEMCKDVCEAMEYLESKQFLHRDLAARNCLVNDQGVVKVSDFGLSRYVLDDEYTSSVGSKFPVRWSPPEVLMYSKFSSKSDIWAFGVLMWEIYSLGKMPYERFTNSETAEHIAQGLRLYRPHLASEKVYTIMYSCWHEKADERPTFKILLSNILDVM
Assay: biochemical
Conditions: read-out: BTK inhibition (%)

Compound | inhibition at 10 µM [%]
CCCCCCC(=O)O[C@H]1CC[C@H]2[C@@H]3CCC4=CC(=O)CC[C@]4(C)[C@H]3CC[C@]12C [PCM-0214913] | 6.2

Same assay, conditions: read-out: BTK inhibition (%), 0.75 uM BTK, […] probe 3l, 15 min preincubation

Compound | inhibition at 10 µM [%]
CC[C@H]1CN2CC[C@H]1C[C@H]2[C@H](O)c1ccnc2ccc(OC)cc12 [PCM-0215969] | -13.1
COc1ccc2c(c1)c(C1=C(c3c[nH]c4ccccc34)C(=O)NC1=O)cn2CCCN(C)C [PCM-0095393] | 24.8
Cc1cc(C)cc(NC(=O)Cc2ccc(OC(C)(C)C(=O)O)cc2)c1 [PCM-0214786] | -2.3
C#Cc1cccc(Nc2ncnc3cc(OCCOC)c(OCCO)cc23)c1 [PCM-0095242] | 31
NCC(O)c1ccc(O)cc1 (stereo not shown) [PCM-0064912] | 2.3
COc1ccc2c(c1OC)CN1CCc3cc4c(cc3C1C2)OCO4 (stereo not shown) [PCM-0216126] | 13.1
CS(=O)(=O)c1ccc(-c2cnc(NCc3ccco3)n3cnnc23)cc1 [PCM-0215813] | -6.9
O=c1[nH]c(=S)[nH]c2nc(-c3ccccc3)c(-c3ccccc3)nc12 [PCM-0215641] | 17
CCCCCCCCCC(=O)N[C@@H](Cc1c[nH]c2ccccc12)C(=O)N[C@H](CC(N)=O)C(=O)N[C@@H](CC(=O)O)C(=O)N[C@@H]1C(=O)NCC(=O)N[C@@H](CCCN)C(=O)N[C@@H](CC(=O)O)C(=O)N[C@H](C)C(=O)N[C@@H](CC(=O)O)C(=O)NCC(=O)N[C@H](CO)C(=O)N[C@@H]([C@H](C)CC(=O)O)C(=O)N[C@@H](CC(=O)c2ccccc2N)C(=O)O[C@@H]1C [PCM-0095008] | -1.6
Cn1cnc(-c2cc3nccc(Oc4ccc(NC(=S)NC(=O)Cc5ccccc5)cc4F)c3s2)c1 [PCM-0094974] | -6.9
COC(=O)C1=C(C)NC(C)=C(C(=O)OCC(C)C)C1c1ccccc1[N+](=O)[O-] (stereo not shown) [PCM-0086426] | 31.1
O=C(Nc1ncc(SCCN2CCCC2)s1)[C@]1(c2ccc(S(=O)(=O)C3CC3)cc2)C[C@H]1C1CCCCC1 [PCM-0095206] | -8.6
O=c1ccn([C@@H]2O[C@H](CO)[C@@H](O)[C@H]2O)c(=O)[nH]1 [PCM-0091168] | 7.8
OCC(CO)N[C@H]1C[C@](O)(CO)[C@@H](O)[C@H](O)[C@H]1O [PCM-0214770] | -8.6
CCCCCCCCCCCCCC(=S)NCCCC[C@H](NC(=O)OCc1ccccc1)C(=O)Nc1ccccc1 [PCM-0215787] | -6.2
CC(=O)OCC(=O)[C@@]1(O)CC[C@H]2[C@@H]3CCC4=CC(=O)CC[C@]4(C)[C@@]3(F)[C@@H](O)C[C@@]21C [PCM-0214907] | -8.3
Oc1ccc2c(c1)OCO2 [PCM-0214880] | -3.9
C[C@@H]1O[C@@H](O[C@@H]2[C@@H](O)[C@H](OCCc3ccc(O)c(O)c3)O[C@H](COC(=O)/C=C/c3ccc(O)c(O)c3)[C@H]2O)[C@H](O)[C@H](O)[C@H]1O [PCM-0216411] | -11.6
COc1cc(O)c2c(=O)cc(-c3ccc(O)c(O)c3)oc2c1 [PCM-0216461] | 61
Cc1cc(N=Nc2ccc(S(=O)(=O)Nc3ccccn3)cc2)c(N)cc1O [PCM-0215414] | 76.4
Nc1ccc(O)c(C(=O)O)c1 [PCM-0086222] | -9
COc1ccc(-c2ccc3c(N4CCOCC4)nc(N4C[C@@H](C)O[C@@H](C)C4)nc3n2)cc1CO [PCM-0094955] | -12.4
COc1ccc(CCc2cc(OC)c(OC)c(OC)c2)cc1O [PCM-0216418] | -24.7

Compound | inhibition at 10 µM [%]
Nc1nc(-c2nn(Cc3ccccc3F)c3ncccc23)ncc1C1CC1 [PCM-0215570] | -5.4
COC(=O)CNC(=O)C(=O)OC [PCM-0215303] | 3.9
O=C(Oc1cccc(F)c1OC(=O)c1cccc(O)c1)c1cccc(O)c1 [PCM-0215618] | -5.4
O=C(NCCN1CCOCC1)Nc1ccc(C(=O)/C=C/c2cccc(N3CCOCC3)n2)cc1 [PCM-0215849] | -0.8
Cn1c(O)c(C2=c3ccccc3=NC2=O)c2ccccc21 [PCM-0216129] | -17
COc1cc(C)[nH]c(=O)c1CNC(=O)c1c(C)n([C@H](C)C2CCN(CC(F)(F)F)CC2)c2ccccc12 [PCM-0214592] | 21.6
Cc1ccc(Nc2cc(N[C@@H]3CCCC[C@@H]3N)nnc2C(N)=O)nc1C [PCM-0215730] | 79.3
Cc1cccc2c3c(ccc12)C1=C(C(=O)C3=O)[C@@H](C)CO1 [PCM-0216343] | 22.4
C#Cc1cccc(Nc2ncnc3cc(OCCOC)c(OCCOC)cc23)c1 [PCM-0085975] | 1.7
O=C(O)CNC(=O)c1c(O)c2ccccc2n(Cc2ccccc2)c1=O [PCM-0095405] | -23.3
COc1c2c(cc3oc(CO[C@@H]4O[C@H](CO)[C@@H](O)[C@H](O)[C@H]4O)cc(=O)c13)O[C@H](C(C)(C)O)C2 [PCM-0216346] | 7.7
O=C(NCc1cccc(O)c1)Nc1nc(-c2ccncc2)cs1 [PCM-0095724] | -4.8
CC(C)=CCC[C@@](C)(O)[C@H]1CC[C@]2(C)[C@@H]1[C@H](O)C[C@@H]1[C@@]3(C)CC[C@H](O)C(C)(C)[C@@H]3[C@@H](O[C@@H]3O[C@H](CO)[C@@H](O)[C@H](O)[C@H]3O)C[C@]12C [PCM-0216547] | 12.4
O=C(/C=C/c1ccc(CN(CCO)CCc2c[nH]c3ccccc23)cc1)NO [PCM-0095072] | -9.3
C[C@H]1[C@H](C)CC[C@]2(C(=O)O)CC[C@]3(C)C(=CC[C@@H]4[C@@]5(C)C[C@@H](O)[C@H](O)C(C)(C)[C@@H]5CC[C@]43C)[C@H]12 [PCM-0216596] | 6.2
COc1cnc(NS(=O)(=O)c2ccc(N)cc2)nc1 [PCM-0086492] | 5.4
CC(C)(C)c1cc(C=C(C#N)C#N)cc(Br)c1O [PCM-0094972] | 57.2
CCCCCCNC(=O)n1cc(F)c(=O)[nH]c1=O [PCM-0065487] | -7
O=C(O)CCc1ccc(O)cc1O [PCM-0214987] | -10.9
NC(N)=Nc1nc(CSCC/C(N)=N/S(N)(=O)=O)cs1 [PCM-0214735] | -26.2
RKDVY [PCM-0214887] | 4.8
Cc1onc(-c2ccccc2Cl)c1C(=O)N[C@@H]1C(=O)N2[C@@H]1SC(C)(C)[C@@H]2C(=O)O [PCM-0214695] | -5.4
CC(=O)OCC(CCn1cnc2cnc(N)nc21)COC(C)=O [PCM-0065613] | -20.2

Compound | inhibition at 10 µM [%]
CC(C)(O)CC[C@@H](O)[C@](C)(O)[C@H]1CC[C@@]2(O)C3=CC(=O)[C@@H]4C[C@@H](O)[C@@H](O)C[C@]4(C)[C@H]3CC[C@]12C [PCM-0095305] | 6.2
CC(C)(Oc1ccc(C2CC2(Cl)Cl)cc1)C(=O)O (stereo not shown) [PCM-0064433] | -14
CC(C)(NS(=O)(=O)c1ccc2c(Cl)cnc(N=C(N)N)c2c1)C(=O)O [PCM-0215778] | -11.6
CC[C@H](C)C[C@H](C)CCCCCCCCC(=O)N[C@H]1C[C@@H](O)[C@@H](O)NC(=O)[C@@H]2[C@@H](O)CCN2C(=O)[C@H]([C@H](O)CC(N)=O)NC(=O)[C@H]([C@H](O)[C@@H](O)c2ccc(O)cc2)NC(=O)[C@@H]2C[C@@H](O)CN2C(=O)[C@H]([C@@H](C)O)NC1=O [PCM-0216459] ({Tetradecanoyl(10R,12S-Me2)}-[Orn(4R-OH,5R-OH)]T[Hyp][hTyr(3S-OH,4S-OH)][Gln(3R-OH)][Pro(3S-OH)]; lactam 1-C) | -42.5
NC(=O)c1[nH]cnc1N [PCM-0214903] | -43.6
Cc1ncc([N+](=O)[O-])n1CCO [PCM-0085759] | -5.4
CC(C)C(=O)Oc1ccc(CO)cc1[C@H](CCN(C(C)C)C(C)C)c1ccccc1 [PCM-0095281] | -0.8
NCCCC[C@@H]1NC(=O)[C@@H](Cc2ccccc2)NC(=O)[C@H](CC(=O)O)NC(=O)CNC(=O)[C@H](CCCN=C(N)N)NC1=O [PCM-0215471] | -10
CCCCCCCCCCCCCCCCCCCCCCCCCCCCO [PCM-0215950] | -11.1
CC(=O)O[C@]1(C(C)=O)CC[C@H]2[C@@H]3C=C(C)C4=CC(=O)CC[C@]4(C)[C@H]3CC[C@@]21C [PCM-0214613] | -4.8
C=CC/C(=N\OS(=O)(=O)O)S[C@@H]1O[C@H](CO)[C@@H](O)[C@H](O)[C@H]1O [PCM-0216356] | 3.9
Cc1cccc(C)c1NC(=O)c1cc(S(N)(=O)=O)c(Cl)cc1O [PCM-0215998] | 23.2
C/C=C1\C(=O)C[C@H]2[C@@H]3CCC4=CC(=O)CC[C@]4(C)[C@H]3CC[C@]12C [PCM-0216120] | -1.6
N/C(=N\N=C\c1ccc(Cl)cc1)N/N=C/c1ccc(Cl)cc1 [PCM-0215125] | 77.8
CC1(C)CC[C@]2(C(=O)O)[C@H](O)C[C@]3(C)C(=CC[C@@H]4[C@@]5(C)CC[C@H](O)C(C)(C)[C@@H]5CC[C@]43C)[C@@H]2C1 [PCM-0214984] | 24.8
Cc1c(-c2ccc(O)cc2)n(Cc2ccc(OCCN3CCCCCC3)cc2)c2ccc(O)cc12 [PCM-0095308] | 84
C=C1/C(=C\C=C2/CCC[C@]3(C)[C@@H]([C@H](C)/C=C/[C@@H](O)C4CC4)CC[C@@H]23)C[C@@H](O)C[C@@H]1O [PCM-0214926] | 1.6
CCCCCCCC/C=C\CCCCCCCC(=O)OCC [PCM-0216145] | 6.9
COc1ccc(C2CNC(=O)C2)cc1OC1CCCC1 (stereo not shown) [PCM-0065474] | 13.2
CC(O)=C(C#N)C(=O)Nc1ccc(C(F)(F)F)cc1 [PCM-0214764] | 0
C=CC(=O)Nc1cccc(Nc2nc(Nc3ccc(OCCOC)cc3)ncc2F)c1 [PCM-0095787] | 90.3
Nc1ccc(-c2ccc3ncc4ccc(=O)n(-c5cccc(C(F)(F)F)c5)c4c3c2)cn1 [PCM-0095430] | 9.7
C[C@H](CC[C@@]1(O)O[C@H]2C[C@H]3[C@@H]4CC=C5C[C@@H](O[C@@H]6O[C@H](CO)[C@@H](O[C@@H]7O[C@@H](C)[C@H](O)[C@@H](O)[C@H]7O)[C@H](O)[C@H]6O[C@@H]6O[C@@H](C)[C@H](O)[C@@H](O)[C@H]6O)CC[C@]5(C)[C@H]4CC[C@]3(C)[C@H]2[C@@H]1C)CO[C@@H]1O[C@H](CO)[C@@H](O)[C@H](O)[C@H]1O [PCM-0215060] | -28
